From article PMC12670160, “A drug-repurposing screen of FDA- and EMA-approved drugs identifies two NF-κB inhibitors active against eumycetoma” (Journal of Antimicrobial Chemotherapy, 2025)
In brackets after ≈: the same amount, converted by molar mass. Counter-ions that a name gives are not always drawn.

What was measured:
[1] = test system: M. mycetomatis strain I1; assay: IC50 and MIC determination, CellTiter-Glo, strain I1; assay type: cell-based, Madurella mycetomatis
[2] = test system: M. mycetomatis strain P1; assay: IC50 and MIC determination, CellTiter-Glo, strain P1; assay type: cell-based, Madurella mycetomatis
[3] = test system: M. mycetomatis; assay: In vitro susceptibility, averages over M. mycetomatis isolates (average metabolic activity at 2 µM, mean MIC); assay type: cell-based; conditions: Madurella mycetomatis, 96 h, 4 days at 37°C, CellTiter-Glo, average of 3 isolates, 20% or below = inhibition
Procedure: M. mycetomatis isolate MM55 was used to screen the Oncode library. This strain was kindly provided by Prof. […] The three M. mycetomatis isolates were identified by ITS sequencing and maintained at −80°C at Erasmus MC. Prior to in vitro screening, isolates were cultured on Sabouraud agar plates (BD, Erembodegem, Belgium) at 37°C.
The Oncode Drug Repurposing library was based on the drug repurposing library from the Drug Repurposing Hub of the Broad Institute and recreated by the Oncode institute.[13] […] Each well of the 384-well plates contained 0.6 µL of a 200 µM stock concentration of compound, resulting in a final concentration of 2 µM when the fungus was added. […] Furthermore, this concentration could also be reached in the G. mellonella larvae.[8],[11] The prepared 384-well plates were transferred on dry ice to the Erasmus MC and stored at −80°C until they were screened.
Each plate also contained a growth control (60 µL of M. mycetomatis hyphal suspension, plus 0.6 µL of DMSO) and a negative control (60 µL of culture medium, plus 0.6 µL of DMSO). Plates were then incubated for 4 days at 37°C, after which 30 µL of CellTiter-Glo 3D Cell Viability reagent was added to every well.[19] After 25 min of incubation at room temperature, the luminescence was measured with a CytoFluor Series 4000 luminometer (PerSeptive Biosystems, Framingham, MA, USA). To determine the metabolic activity, the following formula was used:
Percentagemetabolicactivity=(Absorbancetestluminensence−AbsorbanceNCluminensence/AbsorbanceGCluminensence−AbsorbanceNCluminensence)×100
where, GC is growth control and NC is negative control. The luminescence measured for the GC is considered as 100% metabolic activity. The luminescence for the NC is considered as 0% metabolic activity.

[4] = test system: M. mycetomatis strain mm55; assay: IC50 and MIC determination, CellTiter-Glo, strain mm55; assay type: cell-based, Madurella mycetomatis; conditions: for IC50: concentration inhibiting 50% of fungal hyphae growth; for MIC: concentration with complete growth inhibition
[5] = test system: healthy uninfected G. mellonella larvae; conditions: for Toxicity in G. mellonella larvae at 20 µM: in vivo; for Toxicity in G. mellonella larvae at concentrations as low as 0.5 µM: tested at 20, 10, 5, 1 and 0.5 µM, 10 day observation
Procedure: (§1) For in vivo experiments, sixth-week instar G. mellonella larvae were purchased from Blue-Lagoon, Maassluis, The Netherlands. The larvae were raised and kept in the dark at room temperature. Larvae without any discoloration and weighing around 500 mg were selected for experiments.
To determine the toxicity, 15 healthy uninfected larvae were injected with 20 µL of 20 µM compound as previously described.[16] […] As a control, a separate group of larvae were injected with 20 µL of PBS. Larvae were housed in Petri dishes with Whatman paper at 37°C in the dark. Survival was monitored for 10 days.

[6] = test system: M. mycetomatis MM55-infected G. mellonella larvae; assay: Therapeutic efficacy in M. mycetomatis-infected G. mellonella larvae (survival, log-rank); assay type: in vivo, Galleria mellonella; conditions: 20 µL of 20 µM at 4, 28 and 52 h post infection; 10 days
Procedure: as §1
The wet weight was determined and 10 mL of PBS per gram of mycelia was added. The suspension was then sonicated for 2 min to achieve a particle size of 10 µm. The fungal suspension (4 mg/40 µL) was injected into the last left pro-leg of a healthy G. mellonella larva with an insulin 29G U-100 needle to reach a final inoculum of 4 mg/larva. Larvae were placed in Petri dishes containing Whatman paper in a 37°C incubator.
A control group was also included in which M. mycetomatis-infected larvae were treated with PBS or with 1 mg/kg amphotericin B (Fungizone, Bristol Myers Squibb, Utrecht, The Netherlands). […] The treatment was repeated at 28 h post infection and 52 h post infection via different prolegs. The infection was monitored for 10 days.
To compare the survival rates between PBS treatment control and the different experimental groups a log-rank test was performed. All data were processed and performed in GraphPad Prism 10.

[7] = test system: M. mycetomatis; assay: In vitro susceptibility, averages over M. mycetomatis isolates (average metabolic activity at 2 µM, mean MIC); assay type: cell-based, Madurella mycetomatis; conditions: for Average metabolic activity at 2 µM (%): 4 days at 37°C, CellTiter-Glo, average of 3 isolates, 20% or below = inhibition; for MIC: Madurella mycetomatis, mean/average over strains MM55, P1 and I1
[8] = test system: M. mycetomatis; design: method as in PMID 35398930, PMID 15793113, PMID 36005544, PMID 34181477, PMID 22964246; conditions: against M. mycetomatis; cited from earlier work

Compound | IC50 ([1]; Madurella mycetomatis, I1) [µM] | MIC ([1]; Madurella mycetomatis, I1) [µM] | IC50 ([2]; Madurella mycetomatis, P1) [µM] | MIC ([2]; Madurella mycetomatis, P1) [µM] | activity at 2 µM [3] [%] | IC50 ([4]; Madurella mycetomatis) [µM] | MIC ([4]; Madurella mycetomatis) [µM] | Toxicity in G. mellonella larvae at 20 µM [5] | Survival of M. mycetomatis-infected larvae versus PBS [6] | IC50 ([1]; strain I1) [µM] | MIC ([1]; strain I1) [µM] | IC50 ([2]; strain P1) [µM] | MIC ([2]; strain P1) [µM] | Average metabolic activity at 2 µM (%) [7] [%] | Toxicity in G. mellonella larvae at concentrations as low as 0.5 µM [5] | IC50 [4] [µM] | MIC [4] [µM] | MIC [7] [µM] | MIC50 [8] [ng/mL]
C=C1CCN([C@H](C)[C@](O)(Cn2cncn2)c2ccc(F)cc2F)CC1 [Efinaconazole] | 0.05 | 0.06 (≈ 0.0209 µg/mL) | < 0.03 | 0.03 (≈ 0.0105 µg/mL) | 0 | 0.04 | 0.06 (≈ 0.0209 µg/mL) |  |  |  |  |  |  |  |  |  |  |  | 
Fc1ccc(C(c2ccccc2)(c2ccccc2F)n2ccnc2)cc1 (stereo not drawn) [Flutrimazole] | 0.42 | 0.5 (≈ 0.173 µg/mL) | 0.37 | 0.5 (≈ 0.173 µg/mL) | 0 | 0.92 | 2 (≈ 0.693 µg/mL) |  |  |  |  |  |  |  |  |  |  |  | 
OCCCNc1cc(-c2ccnc(Nc3cccc(Cl)c3)n2)ccn1 [cgp60474] | 0.81 | 1 (≈ 0.356 µg/mL) | 0.64 | 1 (≈ 0.356 µg/mL) | 7.4 | 1.55 | 2 (≈ 0.712 µg/mL) | not toxic | No prolonged survival |  |  |  |  |  |  |  |  |  | 
Bleomycin |  |  |  |  |  |  |  |  |  | 0.2 | 0.25 | < 0.03 | 0.03 | 1.6 | toxic | 0.21 | 0.50 |  | 
Oc1c(I)cc(Cl)c2cccnc12 [Clioquinol] | 1.7 | 2 (≈ 0.611 µg/mL) | 0.38 | 0.5 (≈ 0.153 µg/mL) | 0 | 1.2 | 2 (≈ 0.611 µg/mL) | not toxic | No prolonged survival |  |  |  |  |  |  |  |  |  | 
CCCCC(CC)CNC(=N)NC(=N)NCCCCCCNC(=N)NC(=N)NCC(CC)CCCC (stereo not drawn) [Alexidine dihydrochloride] | 0.8 | > 2 | 1.78 | > 2 | 4.4 | 1.32 | 2 |  |  |  |  |  |  |  |  |  |  | > 2 | 
C[C@@H](c1nc(-c2ccc(C#N)cc2)cs1)[C@](O)(Cn1cncn1)c1cc(F)ccc1F [Isavuconazole] | 0.05 | 0.06 (≈ 0.0262 µg/mL) | < 0.03 | 0.03 (≈ 0.0131 µg/mL) | 2.1 | 0.43 | 1 (≈ 0.437 µg/mL) |  |  |  |  |  |  |  |  |  |  |  | 
CC(=O)[O][Hg][c]1ccccc1 [Phenylmercuric acetate] |  |  |  |  |  |  |  |  |  | 0.45 | 0.50 | < 0.03 | 0.03 | 2.0 | toxic | 1.12 | 2.00 |  | 
N#C/C(=C1/SC[C@@H](c2ccc(Cl)cc2Cl)S1)n1ccnc1 [Luliconazole] | < 0.03 | 0.03 (≈ 0.0106 µg/mL) | < 0.03 | 0.03 (≈ 0.0106 µg/mL) | 1 | < 0.03 | 0.03 (≈ 0.0106 µg/mL) |  |  |  |  |  |  |  |  |  |  | < 0.03 | 1 (≈ 2.82 nM)
N#C/C(=C1/SCC(c2ccccc2Cl)S1)n1ccnc1 (stereo not drawn) [Lanoconazole] | < 0.03 | 0.03 (≈ 0.0096 µg/mL) | < 0.03 | 0.03 (≈ 0.0096 µg/mL) | 3 | 0.04 | 0.06 (≈ 0.0192 µg/mL) |  |  |  |  |  |  |  |  |  |  | < 0.03 | 2 (≈ 6.25 nM)
